Columns and labels:
BON cells = assay: Alamar Blue cell proliferation/viability assay of BON cells after sortilin inhibition; assay type: cell-based, human; details: 5 d of sortilin inhibition
Protocol: FIG. 4: Proliferation of BON cells after sortilin inhibition. To exclude the possibility of toxic effects of sortilin inhibition on BON cells, a cell proliferation assay was performed using the Alamar Blue cell viability assay 5 days after sortilin inhibition.
To exclude the possibility of toxic effects of sortilin inhibition on the BON cells and thereby reducing 5HT production, we performed a cell proliferation assay using Alamar Blue.

[1] = test system: BON neuroendocrine tumor cells; assay: Serotonin (5HT) content of BON cell culture supernatant (secretion) after sortilin inhibition, HPLC; assay type: cell-based, human
Protocol: (§1) (A)-(D) BON neuroendocrine tumor cells were incubated for 23 h in serotonin free medium with (Sort Inh) or without (Control) the sortilin inhibitor AF38469 (10 μM). Afterwards, the serotonin (5HT, A), Tryptophan (TRP, B) and Tyrosin (TYR, C) content as well as the content of the serotonin metabolite 5-hydroxyindoleacetic acid (5-HIAA) in the cell culture supernatant was assessed using high performance liquid chromatography (HPLC). The cells were treated with fresh sortilin inhibitor for two more hours. Subsequently, the 5HT, (E, F), TRP, (G, H) and TYR (I, J) content in the cell lysates was measured in the presence or absence of the secretion inductor of monoamines Paramethoxyamphetamin (PMA) via HPLC as well.
(§2) Next, we wanted to analyze whether sortilin has a functional role in hormone production or secretion of neuroendocrine tumors. We focused on one of the most relevant functional syndromes, i. e. the carcinoid syndrome which is caused due to the overproduction and secretion of serotonin (Clement et al., 2020). […] Afterwards we measured the serotonin (5HT) content in the cell culture supernatant by using high performance liquid chromatography (HPLC) (FIG. 3A-D). […] Subsequently, the 5HT content in the cell lysates was measured by using HPLC as well (FIG. 3E-J).

[2] = Schroder et al, 2014; cited from earlier work
[3] = test system: murine intestinal organoids enriched with neuroendocrine cells; assay: Serotonin content of murine intestinal organoids enriched with neuroendocrine cells, HPLC; assay type: cell-based; details: 10 μM, four days, organoid lysates, vs control
Protocol: FIG. 7: Effect of sortilin inhibition on serotonin content of neuroendocrine organoids. (A) Experimental scheme for testing the effects of sortilin inhibition on serotonin levels in neuroendocrine organoids. Murine intestinal organoids are generated and enriched with neuroendocrine cells as previously described in (Kawasaki et al, 2018; Basak et al, 2017). […] Organoids are subsequently incubated four days in the absence (control) or the presence of the sortilin inhibitor AF38469 (10 μM). The lysates of these organoids are next harvested, and serotonin levels are measured by HPLC.
Some of these organoids were treated additionally four days with the sortilin inhibitor AF38469 (10 μM). Subsequently, the lysates of these organoids were harvested, and serotonin was measured by HPLC (FIG. 7A).

sortilin [4] = details: Schroder et al, 2014; cited from earlier work
[5] = test system: BON neuroendocrine tumor cells; assay: Serotonin (5HT) content of BON cell lysates after sortilin inhibition, HPLC; assay type: cell-based, human; details: 10 μM; 23 h in serotonin free medium, then fresh inhibitor for two more hours; compared to control
Protocol: as §1, §2

[6] = cited from earlier work
[7] = cited from earlier work; remark: listed apart in the source
sortilin [8] = details: Lee et al., 2014; cited from earlier work
sortilin [9] = details: Phase 2 and Phase 3 clinical trials, including NCT04374136, NCT03987295, NCT03636204 and NCT05053035; cited from earlier work

Cc1cccc(NC(=O)c2ccc(C(F)(F)F)cc2C(=O)O)n1 [AF38469, 2-[[(6-methyl-2-pyridinyl)amino]carbonyl]-5-(trifluoromethyl)-benzoic acid]
reduction in cell proliferation (BON cells): could exclude any reduction in cell proliferation | concentration of 5HT in the supernatants ([1]; 10 μM, 23 h in serotonin free medium, HPLC): below the detection level | secretion of serotonin by NEN cells ([1]; NEN cells, summary statement referring to the Examples): suppress | oral bioavailability [2]: orally bioavailable | concentration of serotonin (5HT) per cell [3]: lower concentration | selectivity for sortilin over several of its naturally occurring ligands, including neurotensin-1 (sortilin [4]): highly selective | cellular content of 5HT [5]: significantly lower

Cc1cc(=O)oc2c(CN[C@@H](CC(C)C)C(=O)O)c(O)ccc12 [AF40431, (2S)-2-{[(7-hydroxy-4-methyl-2-oxo-2H-chromen-8-yl)methyl]amino}-4-methylpentanoic acid]
membrane permeability [6]: comparably poor | solubility [7]: comparably poor

Cc1ccc(C(C)(C)C)c(OCCN2CCCC(C)C2)c1 (stereo not drawn) [MPEP, 1-[2-(2-tert-butyl-5-methylphenoxy)-ethyl]-3-methylpiperidine]
degradation of sortilin (sortilin [8]): increasing | sortilin protein levels (sortilin [8]): suppressing

B1: AL001: anti-sortilin antibody; heavy chain having an amino acid sequence of SEQ ID NO: 1 and a light chain having an amino acid sequence of SEQ ID NO: 2 (antibody, chains of the INN, looked up, V domains shown)
VH: QVQLQESGPGLVKPSETLSLTCAVSGYSISSGYYWGWIRQPPGKGLEWIGTIYHSGSTYYNPSLKSRVTISVDTSKNQFSLKLSSVTAADTAVYYCARQGSIKQGYYGMDVWGQGTTVTVSS
VL: DIVMTQSPLSLPVTPGEPASISCRSSQSLLRSTGYNYLDWYLQKPGQSPQLLIYLGSNRASGVPDRFSGSGSGTDFTLKISRAEAEDVGVYYCMQQQEAPLTFGGGTKVEIK
treatment of frontotemporal dementia and/or ALS (sortilin [9]): successfully tested
